Test results taken from US11434242B2, “Dopamine-b-hydroxylase inhibitors” (BIAL-PORTELA & Cª, S.A., priority 2017, dated 2022).
Counter-ions that a name gives are not always drawn.

Target: T1, Dopamine beta hydroxylase (Rattus norvegicus, UniProt Q05754)
T1 construct: Samples were constituted by the right and left adrenals of each animal; from tissue; host or cells: Wistar rat adrenal glands (homogenate)
T1 sequence (Q05754 1-620): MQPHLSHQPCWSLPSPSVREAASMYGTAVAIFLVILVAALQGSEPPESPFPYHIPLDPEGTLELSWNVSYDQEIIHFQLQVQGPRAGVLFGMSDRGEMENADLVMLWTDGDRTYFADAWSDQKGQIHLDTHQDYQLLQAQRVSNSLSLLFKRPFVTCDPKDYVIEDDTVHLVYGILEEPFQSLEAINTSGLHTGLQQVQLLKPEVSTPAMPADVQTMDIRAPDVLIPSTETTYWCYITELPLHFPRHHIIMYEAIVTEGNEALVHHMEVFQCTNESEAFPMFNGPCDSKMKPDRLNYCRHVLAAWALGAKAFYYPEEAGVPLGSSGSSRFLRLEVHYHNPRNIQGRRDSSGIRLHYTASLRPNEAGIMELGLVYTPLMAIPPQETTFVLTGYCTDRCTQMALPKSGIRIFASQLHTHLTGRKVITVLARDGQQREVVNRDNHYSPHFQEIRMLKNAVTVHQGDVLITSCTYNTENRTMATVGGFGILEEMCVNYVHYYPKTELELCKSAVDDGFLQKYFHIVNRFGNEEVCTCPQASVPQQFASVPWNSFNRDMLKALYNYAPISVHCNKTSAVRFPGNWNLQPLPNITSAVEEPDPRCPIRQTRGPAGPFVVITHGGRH
Assay: DβH activity in rat adrenal gland homogenates after oral administration
Type: in vivo
Conditions: 10 mg/kg oral; for DβH activity in ADR (% Control): rat adrenal gland homogenates, maximal within 6 h post-dose, mean±SD of 4 rats; for DβH inhibition in peripheral tissues such as ADR: rat
Procedure: Dopamine beta hydroxylase activity in rat adrenal gland homogenates was measured by the method of Nagatsu and Udenfriend (Nagatsu, T. and Udenfriend, S. “Photometric assay of dopamine-μ-hydroxylase activity in human blood.” Clin. Chem. 18(9) 980-983, 1972) with minor modifications. Catalase, N-ethylmaleimide, tyramine, disodium fumarate, pargyline, sodium acetate, ascorbic acid, copper sulfate and octopamine were obtained from Sigma Chemical Co., St. Louis, Mo. 63178. Test compounds were prepared in kleptose 40% at a concentration of 0.75, 2.5 or 7.5 mg/mL to be administered at a dose of 10 mg/kg. Compounds and vehicle (kleptose 40%) were administered to wistar rats and adrenals were collected 0.5 h, 1 h, 2 h, 4 h, 6 h, 8 h, 15 h and 24 h after administration. Samples were constituted by the right and left adrenals of each animal. Adrenals were stored in 200 μL of 50 mM Tris pH 7.4 at −30° C., from date of collection. The samples were homogenized and homogenates were then quantified for protein. Protein concentration was adjusted to 1.6 mg/ml. The various reagents used to make up the incubation buffer were premixed and consisted of the following components: sodium acetate buffer (1 M, pH 5.0, 6.0 mL), sodium fumarate (0.2 M, 1.5 mL), ascorbic acid (0.2 M, 1.5 mL, freshly prepared), pargyline (20 mM, freshly prepared, 1.5 mL), N-ethylmaleimide (0.2 M, 1.5 mL), catalase (55 000 U/ml, 3 mL), copper sulfate (90 μM, 1.67 mL) and ultrapure water (1.33 mL). The standard incubation mixture (total volume, 500 μL) contained: 350 μL of incubation buffer; 125 μL of protein sample (or buffer for blank reaction or standard curve). The reaction mixture was placed in water bath with shaking at 37° C. and pre-incubated for 10 minutes. Tyramine (0.4 M, 25 μL) was added and incubation proceeded for 45 minutes. The reaction contents were exposed to air. A sample of enzyme preparation (with 125 μL of protein sample) that had been added perchloric acid 2 M at the end of the pre-incubation period was used as blank. A blank for each of the tested compounds was used. For octopamine standard curve, perchloric acid 2 M was replaced by increasing concentrations of octopamine prepared in perchloric acid 2 M (0.5, 1, 2.5, 5, 7.5, 10 μg/mL, final concentration). The incubation was stopped by adding 50 μL of 2 M molar perchloric acid, and the mixture was centrifuged at 16000 g for 3 min. The supernatant fluid (500 μL) was transferred to a column (SPE cartridge ISOLUTE SCX-3, 100 mg) and centrifuged at 150 g for 2 min. The column was washed two more times with 0.5 ml of ultrapure water by centrifuging at 150 g for 2 min. The adsorbed octopamine was eluted twice with 250 μL of 4 M ammonium hydroxide by centrifuging at 150 g for 2 min. Octopamine in the eluate was then converted to p-hydroxybenzaldehyde by adding 100 μL of sodium periodate (2%) and incubating for 6 min. Excess periodate was than reduced by adding 100 μl of sodium metabisulfite (10%). Absorbance was measured at […] in a 96 well plate by use of a SpectraMAX plus 384 (Molecular Devices) with software SOFTmax® PRO Software 5.3 spectrophotometer. Absorbance was linear with octopamine concentration from 0.5 to 10 μg/mL. Dopamine beta hydroxylase activity is determined as nmol of octopamine formed/mg of protein/hour and effect of compounds is presented as % of control.

Row | SMILES | DβH activity in ADR (% Control) | DβH inhibition in peripheral tissues such as ADR
1 | Fc1ccc(Br)c(F)c1[C@@H]1Cc2c(CCN3CCOCC3)[nH]c(=S)n2C1 [Example 195, (S)-6-(3-bromo-2,6-difluorophenyl)-1-(2-morpholinoethyl)-2,5,6,7-tetrahydro-3H-pyrrolo[1,2-c]imidazole-3-thione] | 21 ± 9 | inhibit DβH
2 | Fc1cc(F)c(F)c([C@H]2Cc3c(CCCN4CCCC4)[nH]c(=S)n3C2)c1F [Example 219, (R)-1-(3-(pyrrolidin-1-yl)propyl)-6-(2,3,5,6-tetrafluorophenyl)-2,5,6,7-tetrahydro-3H-pyrrolo[1,2-c]imidazole-3-thione hydrochloride] | 43 ± 16 | inhibit DβH
3 | F.Fc1ccc(Br)cc1[C@]12C[C@H]1c1c(CCN3CCOCC3)[nH]c(=S)n1C2 [Example 191, (5aS,6aR)-5a-(5-bromo-2-fluorophenyl)-1-(2-morpholinoethyl)-5,5a,6,6a-tetrahydrocyclopropa[3,4]pyrrolo[1,2-c]imidazole-3(2H)-thione hydrofluoride] | 45 ± 8 | inhibit DβH
4 | CN(C(=O)Cc1c2n(c(=S)n1C)C[C@@]1(c3c(F)ccc(Cl)c3F)C[C@@H]21)C1COC1 [Example 403, 2-((5aS,6aR)-5a-(3-chloro-2,6-difluorophenyl)-2-methyl-3-thioxo-2,3,5,5a,6,6a-hexahydrocyclopropa[3,4]pyrrolo[1,2-c]imidazol-1-yl)-N-methyl-N-(oxetan-3-yl)acetamide] | 0 ± 0 | inhibit DβH
5 | Cn1c(CC(=O)O)c2n(c1=S)C[C@@]1(c3c(F)ccc(Cl)c3F)C[C@@H]21 [Example 231, 2-((5aS,6aR)-5a-(3-chloro-2,6-difluorophenyl)-2-methyl-3-thioxo-2,3,5,5a,6,6a-hexahydrocyclopropa[3,4]pyrrolo[1,2-c]imidazol-1-yl)acetic Acid] | 43 ± 9 | inhibit DβH
6 | Cl.Cn1c(CCN[C@@H]2CCOC2)c2n(c1=S)C[C@H](c1c(F)ccc(Br)c1F)C2 [Example 256, (S)-6-(3-bromo-2,6-difluorophenyl)-2-methyl-1-(2-(((R)-tetrahydrofuran-3-yl)amino)ethyl)-2,5,6,7-tetrahydro-3H-pyrrolo[1,2-c]imidazole-3-thione hydrochloride] | 44 ± 22 | inhibit DβH
7 | Cl.Fc1ccc(Cl)cc1[C@]12C[C@H]1c1c(CCN3CCOCC3)[nH]c(=S)n1C2 [Example 174, (5aS,6aR)-5a-(5-chloro-2-fluorophenyl)-1-(2-morpholinoethyl)-5,5a,6,6a-tetrahydrocyclopropa[3,4]pyrrolo[1,2-c]imidazole-3(2H)-thione hydrochloride] | 39 ± 18 | inhibit DβH
